In patent US20220177428A1, “SPECIFICALLY SUBSTITUTED 3-(2-ALKOXY-6-ALKYL-4-PROPINYLPHENYL)-3-PYRROLIN-2-ONES AND THEIR USE AS HERBICIDES” (Bayer Aktiengesellschaft, priority 2019, published 2022):

Experiments:
Assay type in all cases: in vivo
[1] = tested on: Abutylon threophrasti; assay: Pre-emergence herbicidal effect; settings: 320 g ai/ha, visual score after 3 weeks
From the text: (§1) Seeds of monocotyledonous and dicotyledonous weed plants and crop plants are laid out in sandy loam soil in wood-fibre pots and covered with soil. The compounds of the invention, formulated in the form of wettable powders (WP) or as emulsion concentrates (EC), are then applied to the surface of the covering soil as aqueous suspension or emulsion at a water application rate equating to 600 to 800 L/ha with addition of 0.2% wetting agent. After the treatment, the pots are placed in a greenhouse and kept under good growth conditions for the trial plants. The damage to the test plants is scored visually after a test period of 3 weeks by comparison with untreated controls (herbicidal activity in percent (%): 100% activity=the plants have died, 0% activity=like control plants). [table]

[2] = tested on: Alopecurus myosuroides; assay: Pre-emergence herbicidal effect; settings: visual score after 3 weeks
From the text: as §1

[3] = tested on: Amaranthus retroflexus; assay: Pre-emergence herbicidal effect; settings: 320 g ai/ha, visual score after 3 weeks
From the text: as §1

[4] = tested on: Avena fatua; assay: Pre-emergence herbicidal effect; settings: visual score after 3 weeks
From the text: as §1

[5] = tested on: Digitaria sanguinalis; assay: Pre-emergence herbicidal effect; settings: visual score after 3 weeks
From the text: as §1

[6] = tested on: Echinochloa crus-galli; assay: Pre-emergence herbicidal effect; settings: visual score after 3 weeks
From the text: as §1

[7] = tested on: Lolium rigidum; assay: Pre-emergence herbicidal effect; settings: visual score after 3 weeks
From the text: as §1

[8] = tested on: Matricaria inodora; assay: Pre-emergence herbicidal effect; settings: 320 g ai/ha, visual score after 3 weeks
From the text: as §1

[9] = tested on: Setaria viridis; assay: Pre-emergence herbicidal effect; settings: visual score after 3 weeks
From the text: as §1

[10] = tested on: Veronica persica; assay: Pre-emergence herbicidal effect; settings: 320 g ai/ha, visual score after 3 weeks
From the text: as §1

[11] = tested on: Viola tricolor; assay: Pre-emergence herbicidal effect; settings: visual score after 3 weeks
From the text: as §1

[12] = tested on: Alopecurus myosuroides; assay: Post-emergence herbicidal effect; settings: 80 g ai/ha, visual score after about 3 weeks
Procedure: (§2) [table] Seeds of monocotyledonous and dicotyledonous weed and crop plants are laid out in sandy loam soil in wood-fibre pots, covered with soil and cultivated in a greenhouse under good growth conditions. 2 to 3 weeks after sowing, the test plants are treated at the one-leaf stage. The compounds of the invention, formulated in the form of wettable powders (WP) or as emulsion concentrates (EC), are then sprayed onto the green parts of the plants as aqueous suspension or emulsion at a water application rate equating to 600 to 800 L/ha with addition of 0.2% wetting agent. After the test plants have been left to stand in the greenhouse under optimal growth conditions for about 3 weeks, the action of the preparations is assessed visually in comparison to untreated controls (herbicidal action in percent (%): 100% activity=the plants have died, 0% activity=like control plants).

[13] = tested on: Avena fatua; assay: Post-emergence herbicidal effect; settings: 80 g ai/ha, visual score after about 3 weeks
Procedure: as §2

[14] = tested on: Digitaria sanguinalis; assay: Post-emergence herbicidal effect; settings: 80 g ai/ha, visual score after about 3 weeks
Procedure: as §2

[15] = tested on: Echinochloa crus-galli; assay: Post-emergence herbicidal effect; settings: 80 g ai/ha, visual score after about 3 weeks
Procedure: as §2

[16] = tested on: Lolium rigidum; assay: Post-emergence herbicidal effect; settings: 80 g ai/ha, visual score after about 3 weeks
Procedure: as §2

[17] = tested on: Setaria viridis; assay: Post-emergence herbicidal effect; settings: 80 g ai/ha, visual score after about 3 weeks
Procedure: as §2

SMILES: CC#Cc1cc(C)c(C2=C(OC(=O)OCC)C3(CCC(COC)CC3)NC2=O)c(OC)c1 (stereo not drawn) [Example Q8]
- Pre-emergence activity ABUTH [1]: 100%
- Pre-emergence activity ALOMY ([2]; 80 g ai/ha): 100%
- Pre-emergence activity ALOMY ([2]; 320 g ai/ha): 100%
- Pre-emergence activity AMARE [3]: 100%
- Pre-emergence activity AVEFA ([4]; 80 g ai/ha): 80%
- Pre-emergence activity AVEFA ([4]; 320 g ai/ha): 100%
- Pre-emergence activity DIGSA ([5]; 80 g ai/ha): 100%
- Pre-emergence activity DIGSA ([5]; 320 g ai/ha): 100%
- Pre-emergence activity ECHCG ([6]; 80 g ai/ha): 100%
- Pre-emergence activity ECHCG ([6]; 320 g ai/ha): 100%
- Pre-emergence activity LOLRI ([7]; 80 g ai/ha): 100%
- Pre-emergence activity LOLRI ([7]; 320 g ai/ha): 100%
- Pre-emergence activity MATIN [8]: 100%
- Pre-emergence activity SETVI ([9]; 80 g ai/ha): 100%
- Pre-emergence activity SETVI ([9]; 320 g ai/ha): 100%
- Pre-emergence activity VERPE [10]: 100%
- Pre-emergence activity VIOTR ([11]; 80 g ai/ha): 100%
- Pre-emergence activity VIOTR ([11]; 320 g ai/ha): 100%
- Post-emergence activity ALOMY [12]: 100%
- Post-emergence activity AVEFA [13]: 100%
- Post-emergence activity DIGSA [14]: 100%
- Post-emergence activity ECHCG [15]: 100%
- Post-emergence activity LOLRI [16]: 100%
- Post-emergence activity SETVI [17]: 100%
